The results in this text go back to publication PMC11786100, “Chronic GIPR agonism results in pancreatic islet GIPR functional desensitisation” (Molecular Metabolism, 2025).

Data set [1] in a line: Pharmacokinetic study in pigs. Type of data set: in vivo. Particulars: 0.5 mg/pig subcutaneously, male large white pigs, n = 3. Here is the method: Pharmacokinetic testing of GIP108, administered subcutaneously at 0.5 mg/pig in male large white pigs, was outsourced to Pharmaron Ltd., UK. Full details are stated elsewhere.
The subject of a further data set is HFD-induced obese mice. Nature of the data set: Chronic GIP108 administration to HFD-induced obese mice. The following applies: for body weight / food intake: n = 9–10/group. Type of data set: in vivo, mouse. Here is the method: In all in vivo studies, mice were randomised by body weight into groups. Mice received a 50 μL subcutaneous injection of saline (0.9% sodium chloride) or peptide at a specified dose, diluted in saline. Peptide dosing was in nmol per kg of total body weight. For the assessment of the chronic effects of GIP108, mice were injected daily for 15 days. Body composition was measured by EchoMRI on day −1 and day 15. An intraperitoneal glucose tolerance test (IPGTT) (2 g/kg) was conducted on day 14, following 6 h of fasting and 2 h after peptide injection. Non-fasting plasma leptin (ab199082, Abcam, UK), adiponectin (ab226900, Abcam, UK) and amino acids (ab65347, Abcam, UK) were measured on day 16. For the assessments of in vivo GIPR desensitisation, mice were injected at 17:00 with vehicle or GIP108 (30 nmol/kg) prior to an acute food intake study/IPGTT/insulin bleeds conducted the following day. Full details of the in vivo studies are provided in the supplementary methods.
HFD-induced obese mice (mean starting weight of 43.4 g) received daily injection of saline, GIP108 (30 nmol/kg) and GIP108 (100 nmol/kg) (n=9-10/group) for 15 days. Mice were injected between 16:00 and 17:00, before the beginning of the natural feeding period. Food intake and body weight were measured daily for the entirety of the study. Fat mass and lean mass were calculated on day -1 and day 15. An intraperitoneal glucose tolerance test (IPGTT) was conducted on day 14. On this day, mice received their daily injection of peptide at midday rather than between 16:00 and 17:00. The mice were culled on day 16 via decapitation to allow for collection of large volumes of blood for plasma analysis.
Mice were fasted at 08:00. For all studies, 20% glucose was administered at 14:00, with the injection volume adjusted to the body weight of the mouse such that each mouse received glucose at 2 g/kg. To assess effects of GIP108 on day 14 of the chronic study, mice were dosed with saline or GIP108 at a specified dose at 12:00. […] Blood glucose measurements were taken via tail vein venesection at baseline, t=15, t=30, t=60, t=90 and t=120 mins. Glucose AUC is calculated using y=0. Glucose readings were measured in mmol/L using the same GlucoRx glucometer.
Body composition was measured using an EchoMRI^TM machine. This allows for the measurement of lean mass, fat mass and water mass. The mass was recorded in grams. Mice were restrained in a red Perspex tube which was then inserted into the EchoMRI^TM machine. Each scan took 160 seconds. The tube was cleaned between animals to minimise stress.
Leptin, adiponectin and amino acids were quantified following chronic GIP108 administration. Plasma amino acids were measured using the Abcam L-amino acid assay kit (ab65347, Abcam, UK). Plasma adiponectin was measured using the Abcam mouse adiponectin ELISA kit (ab226900, Abcam, UK). Plasma leptin was measured using the Abcam mouse leptin ELISA kit (ab199082, Abcam, UK). All assays were performed according to the manufacturer’s protocol and were read using the SpectraMax i3x Microplate Reader (Molecular Devices, US).

The target in a further data set is T1, mouse SNAP-tagged GLP-1R (Mus musculus, UniProt O35659).
T1 construct: host or cells: AD-293
T1 sequence (O35659 22-463): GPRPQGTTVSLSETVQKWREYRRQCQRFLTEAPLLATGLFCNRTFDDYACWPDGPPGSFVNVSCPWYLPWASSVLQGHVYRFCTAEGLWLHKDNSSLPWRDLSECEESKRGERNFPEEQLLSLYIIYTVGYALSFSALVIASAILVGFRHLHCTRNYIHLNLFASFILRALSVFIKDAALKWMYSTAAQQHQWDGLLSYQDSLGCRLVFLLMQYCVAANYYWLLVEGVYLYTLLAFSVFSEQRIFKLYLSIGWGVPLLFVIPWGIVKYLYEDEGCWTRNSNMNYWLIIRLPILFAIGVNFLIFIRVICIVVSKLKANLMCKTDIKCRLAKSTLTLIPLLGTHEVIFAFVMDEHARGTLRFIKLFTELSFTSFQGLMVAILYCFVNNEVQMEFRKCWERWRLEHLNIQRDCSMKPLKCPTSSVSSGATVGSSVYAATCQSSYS
Nature of the data set: β-arrestin-2 activation assay (Borealis sensor) in AD-293 cells. Type of data set: cell-based. Particulars: 10 nM, 30-minute stimulation, n = 5–6. Here is the method:
AD-293 cells were transfected with desired plasmid DNA encoding a SNAP-tagged GPCR alongside transduction of Bacmam viral particles encoding the Borealis β-arrestin-2 sensor (Montana Molecular, US) and GRK5 (Montana Molecular, US) 24 h prior to assay. Cells were labelled for 10 min with BG-S-S-649 and imaged at baseline and for 30 min following peptide stimulation. Borealis arrestin sensor fluorescence in BG-S-S-649 labelled cells (representing GPCR expressing cells) was quantified and expressed as a % change from baseline. Full details are provided in the supplementary methods.
AD-293 cells were added to a 96-well plate and maintained in 200 μL complete DMEM. […]
Cells were labelled with cleavable SNAP-tag probe BG-S-S-649 in complete DMEM for 10 minutes prior to washing and imaging. […] Cells were imaged at baseline, registering both BG-S-S-649 fluorescence and borealis arrestin sensor fluorescence. Borealis arrestin sensor fluorescence was then imaged for 30 minutes after peptide addition in intervals of 5 minutes. Borealis arrestin sensor fluorescence in BG-S-S-649 labelled cells was quantified using Fiji v1.54f (NIH) and expressed as a % change from baseline.

[2] abbreviates: 30 nmol/kg daily s.c. over two weeks.
[3] abbreviates: 100 nmol/kg daily s.c. over two weeks, EchoMRI.
The mark [4] stands for this setting: 100 nmol/kg daily s.c. over two weeks.
Where [5] appears, read: 30 or 100 nmol/kg daily s.c., fed state 16 h after last injection.

Turning to `CC[C@H](C)[C@H](NC(=O)[C@H](CO)NC(=O)[C@H](Cc1ccc(O)cc1)NC(=O)[C@H](CC(=O)O)NC(=O)[C@H](CO)NC(=O)[C@@H](NC(=O)[C@H](Cc1ccccc1)NC(=O)[C@@H](NC(=O)CNC(=O)[C@H](CCC(=O)O)NC(=O)C(C)(C)NC(=O)[C@@H](N)Cc1ccc(O)cc1)[C@@H](C)O)[C@@H](C)CC)C(=O)N[C@@H](C)C(=O)N[C@@H](CC(C)C)C(=O)N[C@@H](CC(=O)O)C(=O)N[C@@H](CCCCN)C(=O)N[C@H](C(=O)N[C@@H](Cc1c[nH]cn1)C(=O)N[C@@H](CCC(N)=O)C(=O)N[C@@H](CCC(N)=O)C(=O)N[C@@H](CC(=O)O)C(=O)N[C@@H](Cc1ccccc1)C(=O)N[C@H](C(=O)N[C@@H](CC(N)=O)C(=O)N[C@@H](Cc1c[nH]c2ccccc12)C(=O)N[C@@H](CC(C)C)C(=O)N[C@@H](CC(C)C)C(=O)N[C@@H](C)C(=O)N[C@@H](CCC(N)=O)C(=O)N[C@@H](CCCCN)C(=O)NCC(=O)N[C@@H](CCCCNC(=O)CC[C@H](NC(=O)CCCCCCCCCCCCCCCCCCC(=O)O)C(=O)O)C(=O)N[C@@H](CCCCN)C(=O)N[C@@H](CC(N)=O)C(=O)N[C@@H](CC(=O)O)C(=O)N[C@@H](Cc1c[nH]c2ccccc12)C(=O)N[C@@H](CCCCN)C(=O)N[C@@H](Cc1c[nH]cn1)C(=O)N[C@@H](CC(N)=O)C(=O)N[C@H](C(=O)N[C@H](C(=O)N[C@@H](CCC(N)=O)C(=O)O)[C@@H](C)O)[C@@H](C)CC)C(C)C)[C@@H](C)CC` [GIP108], in data set [1], the half-life result is reported as “extended half-life”. For the same molecule, in the data set on HFD-induced obese mice (30 nmol/kg daily s.c. over two weeks, EchoMRI), the fat mass entry was “not 30 nmol/kg”. Also, in the data set with HFD-induced obese mice (setting [2]), the body weight result is “had no effect on body weight” and the food intake result was “not 30 nmol/kg”. For the same molecule, in the data set with HFD-induced obese mice (setting [3]), the fat mass entry is given as “significantly lowered” and the lean mass entry is reported as “without reductions in lean mass”. Further, in the data set with HFD-induced obese mice (setting [4]), the body weight result is given as “significantly lowered” and the food intake result is “significantly lowered”. The intraperitoneal glucose tolerance entry in the data set with HFD-induced obese mice (30 and 100 nmol/kg daily s.c., IPGTT 2 g/kg on day 14, 2 h after injection) was “dose-dependent improvement”. The fasting glucose entry with HFD-induced obese mice (30 and 100 nmol/kg daily s.c., day 14, 2 h after injection) is “dose-dependent improvement”. Besides, in the data set with HFD-induced obese mice (setting [5]), the plasma adiponectin entry is reported as “increased plasma adiponectin”, the “plasma amino acid levels” value is on record as “had no impact” and the plasma leptin result is “reduced plasma leptin”.

GLP-1(7–36)·NH2: the “β-arrestin-2 activation compared to vehicle control” value on mouse SNAP-tagged GLP-1R was “significant β-arrestin-2 activation”.
